Data published in US5762910A, “Liposoluble compounds useful as magnetic resonance imaging agents” (ImaRx Pharmaceutical Corp., priority 1996, dated 1998).

Experiments:
[1] = In vitro relaxivity of liposomal contrast agents at 0.5 Tesla (Table I); format: physicochemical; settings: 0.5 Tesla (21.3 MHz); liposomes EPC/cholesterol 8:2, 33 mole percent compound
Procedure: Liposomal contrast agents of the invention, prepared in accordance with Example 8, were serially diluted from a stock solution of known concentration. Diluted concentrations for testing were held constant at 0.5 mM, 0.25 mM, 0.125 mM, 0.100 mM, 0.05 mM, and 0.025 mM, respectively. Samples were scanned on a Toshiba MRT 50A 0.5 Tesla (21.3 MHz) clincal magnet equipped with a QD head coil (Toshiba MRI scanner, Nasu, Japan). Signal intensities for resulting scans were then statistically analyzed using a computer curve fitting program (Fit All, MTR Software, version 1.1). Resulting relaxivities were regressed against the concentration to determine R1 (1/T1 mmol sec^-1) and R2 ([…]). The results were compared with similar scans for other compounds not within the scope of the present invention. Specifically, as a comparison for the contrast agents of the invention, 0.5 Tesla scans were made of Gd-DTPA (no liposome), Mn-EDTA-MEA (no liposome), Mn-EDTA-MEA (incorporated into a liposome of 0.1 micron), and phosphate buffered saline (PBS).
In all liposome examples in Table I, the lipid concentration is 200 mM, and all liposomes are composed of 80 mole percent egg phosphatidyl choline (EPC) and 20 mole percent cholesterol. […]

[2] = In vitro relaxivity of Mn-EDTA-DDP and Mn-EDTA-DDP albumin suspensions at 0.5 Tesla (Table III); format: physicochemical; settings: 0.5 Tesla (21.3MHz), in mM^-1 s^-1
Procedure: Mn-EDTA-DDP and Mn-EDTA-DDP albumin suspensions (contrast agents within the scope of the invention) were prepared in accordance with Example 11, except that water instead of saline was used. The samples scanned by NMR using a 0.5 Tesla (21.3MHz) Toshiba MRI scanner (Nasu, Japan) to determine relaxivity. The results were compared with similar scans for other compounds not within the scope of the invention. Specifically, scans were made of contrast agent of the invention, Mn-EDTA-DDP, Mn-EDTA-DDP albumin suspensions (both heated to 55° C., and unheated), and compared with scans of PBS, Gd-DTPA, MnCl2, and MnCl2 albumin suspensions. MnCl2, and the MnCl2 liposomes were prepared in accordance with Example 15.

[3] = background; compared with gadolinium alone; cited from earlier work
[4] = tested on: rats bearing hepatic tumors (C5 clonal derivative epithelioid neoplasms); assay: In vivo efficacy, MR imaging at 1.5 Tesla of rats bearing hepatic tumors (Tables IV A-D); parameters: species or system rat; settings: i.v.; for Tumor Contrast To Noise: 30 minute delay
Procedure: Mn-EDTA-ODP and Mn-EDTA-DDP liposomes of both 30 nm and 100 nm (contrast agents within the scope of the invention) were prepared in accordance with Example 8, injected intraveneously via a tail vein injection into rats bearing hepatic tumors (C5 clonal derivative epithelioid neoplasms), and the rats imaged using a 1.5 Tesla GE Signa Clinical Magnet equipped with a linear knee coil. Animals were anesthesized with a 10:1 mixture v/v of ketamine (100 mg/ml) and acepoumozine (10 mg/ml) prior to imaging. Imaging parameters were: TR=250; TE=12; Matrix=256×192; NEX=8; FOV 16 cm; Slice Thickness=3 mm; Slice Gap=1 mm. Images were taken in the coronal plane, mapped off an axial scout image. For comparison, rats were also injected with MnCl2, and MnCl2 liposomes, prepared in accordance with Example 15.
In Table IV A, imaging was preformed with one rat at each dose. S/N denotes signal to noise ratio.
In Table IV B, the "*" denotes a 30 minutes delay in imaging. Also, NA denotes that imaging was not done at the indicated dosage. The liposomes employed were composed of 80 mole percent egg phosphatidylcholine (EPC) and 20 mole percent cholesterol. With the Mn-EDTA-DDP liposomes, there was a 1:3 molar ratio of Mn-EDTA-DDP to lipid in the liposomes (lipid was 8:2 EPC/cholesterol). The data was obtained from one rat imaged at each dose.
In Table IV C, NT denotes that no tumors were detected, and NA denotes that imaging not done at the indicated dosage.
In Table IV D, NT denotes that no tumors were detected, and NA denotes that imaging not done at the indicated dosage.

[5] = tested on: Outbred ICR mice; assay: In vivo toxicity, LD50 in mice after intravenous tail vein injection (Table V); parameters: species or system mouse; settings: i.v. tail vein
Procedure: Outbred ICR mice (Harlan Sprague Dawley, Indianapolis, Ind.) were injected intraveneously via a tail vein injection with various doses of Mn-EDTA-DDP and Mn-EDTA-DDP liposomes, prepared in accordance with Example 8, and the LD50 measured. As a comparison, the mice were also injected with MnCl2 and MnCl2 liposomes.
In Table V, MnCl2 liposomes denotes manganese chloride salt entrapped in 100 nm diameter liposomes comprised of 8:2 EPC/cholesterol. Also, Mn-EDTA-DDP in liposomes refers to 100 nm liposomes comprised of 1:3Mn-EDTA-DDP to lipid (where the lipid is 8:2 EPC/cholesterol).

## O=C([O-])CN(CCN(CC(=O)[O-])CC(=O)[O-])CCN(CC(=O)[O-])CC(=O)[O-].[Gd+3] [Gd-DTPA]
[1]
  R1 (1/T1), relaxivity: 4.68 ± 0.279 per millimole of paramagnetic
  R2 (1/T2), relaxivity: 5.17 ± 0.148 per millimole of paramagnetic
[2]; 1.0 mM
  R1, relaxivity: 4.58 ± 0.143
  R2, relaxivity: 5.41 ± 0.65
[3]
  toxicity (in words): much less toxicity

## [Cl][Mn][Cl] [MnCl2, manganese chloride]
[2]; with and without albumin
  R1, relaxivity: 8.73 ± 0.928
  R2, relaxivity: 39.45 ± 0.515
[4]; 0.5 μM/kg
  Tumor Contrast To Noise: 12
[4]; 0.5 μM/kg, delayed post (30 minutes delay)
  Percent Liver Enhancement: 0%
[4]; 0.5 μM/kg, post
  Contrast to Noise: 19
  Percent Liver Enhancement: 0%
[4]; 0.5 μM/kg, pre
  Contrast to Noise: 28
[4]; 1.0 μM/kg
  Tumor Contrast To Noise: 16
[4]; 1.0 μM/kg, delayed post (30 minutes delay)
  Percent Liver Enhancement: 0%
[4]; 1.0 μM/kg, post
  Contrast to Noise: 23
  Percent Liver Enhancement: 0%
[4]; 1.0 μM/kg, pre
  Contrast to Noise: 37.5
[4]; 2.5 μM/kg
  Tumor Contrast To Noise: 35.9
[4]; 2.5 μM/kg, delayed post (30 minutes delay)
  Percent Liver Enhancement: 29.4%
[4]; 2.5 μM/kg, post
  Contrast to Noise: 17.9
  Percent Liver Enhancement: 25%
[4]; 2.5 μM/kg, pre
  Contrast to Noise: 13.1
[4]; 5.0 μM/kg
  Tumor Contrast To Noise: 31.3
[4]; 5.0 μM/kg, delayed post (30 minutes delay)
  Percent Liver Enhancement: 21%
[4]; 5.0 μM/kg, post
  Contrast to Noise: 28.3
  Percent Liver Enhancement: 43%
[4]; 5.0 μM/kg, pre
  Contrast to Noise: 21.3
[4]; 10.0 μM/kg
  Tumor Contrast To Noise: 29.6
[4]; 10 μM/kg, delayed post (30 minutes delay)
  Percent Liver Enhancement: 61%
[4]; 10 μM/kg, post
  Percent Liver Enhancement: 81%
[4]; 10.0 μM/kg, post
  Contrast to Noise: 29.2
[4]; 10.0 μM/kg, pre
  Contrast to Noise: 9.3
[5]
  Interpolated LD50s: 250 µmol/kg

## Manganese N,N'-Bis-(Carboxy-Decylamidomethyl-N-2,3-Dihydroxypropyl)-Ethylenediamine- N,N'-Diacetate [Mn-EDTA-DDP]
[2]; with and without albumin
  R1, relaxivity: 9.83 ± 0.332
  R2, relaxivity: 15.20 ± 0.393
[5]
  Interpolated LD50s: 240 µmol/kg
